Measurements as given in ChEMBL document CHEMBL1129570, “2-(Hydroxyalkyl)estradiols: synthesis and biological evaluation” (J Med Chem, 1996).

Tests used:
Estrogen receptor [1] = target: T1, Estrogen receptor (Homo sapiens, UniProt Q92731+P03372); assay: Affinity estrogen receptor of MCF-7 human mammary cancer cells; type: cell-based; conditions: mcf7
Estrogen receptor [2] = target: T1, Estrogen receptor; assay: (§1) Induction of pS2 mRNA expression in human MCF-7 mammary carcinoma cells; type: functional, cell-based; conditions: mcf7
Estrogen receptor [3] = target: T1, Estrogen receptor; assay: as §1; type: functional, cell-based; conditions: mcf7; remark: listed apart in the source
Estrogen receptor [4] = target: T1, Estrogen receptor; assay: Affinity for estrogen receptor; type: protein assay

Compound	EC50 (Estrogen receptor [1])	EC50 (Estrogen receptor [2])	EC50 (Estrogen receptor [3])	EC50 (Estrogen receptor [4])
C[C@]12CC[C@@H]3c4cc(CCCO)c(O)cc4CC[C@H]3[C@@H]1CC[C@@H]2O	5220 nM	495 nM	0.004 nM	
C[C@]12CC[C@@H]3c4cc(O)c(O)cc4CC[C@H]3[C@@H]1CC[C@@H]2O	1660 nM	504 nM		

The next lines start with the values.

EC50 (Estrogen receptor [1])	EC50 (Estrogen receptor [2])	EC50 (Estrogen receptor [3])	EC50 (Estrogen receptor [4])	Compound
4890 nM	272 nM			C[C@]12CC[C@@H]3c4cc(CCO)c(O)cc4CC[C@H]3[C@@H]1CC[C@@H]2O
782 nM				C[C@]12CC[C@@H]3c4cc(C=O)c(O)cc4CC[C@H]3[C@@H]1CC[C@@H]2O
342 nM	10.3 nM	2.79 nM	146 nM	C[C@]12CC[C@@H]3c4cc(CO)c(O)cc4CC[C@H]3[C@@H]1CC[C@@H]2O
